In US10294202B2, “Pyrrolidinones as herbicides” (FMC Corporation, priority 2013, dated 2019):
Read-outs that look alike come from different tables or passages of the source.

Tests used:
[1] = tested on: nutsedge, yellow; test: Test C pre-/postemergence herbicide test; format: in vivo, Cyperus esculentus
Procedure, shortened: (§1)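 Pre-emergence: seeds sown in loam/sand blend and treated with compound in surfactant-containing solvent. Post-emergence: plants at 2–18 cm (1- to 4-leaf stage) in peat-based medium sprayed with the same formulation. Visual rating versus controls after 13–15 days in greenhouse, scale 0 (no effect) to 100 (complete control).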

[2] = tested on: corn; test: Test A pre-/postemergence herbicide test; format: in vivo, Zea mays
Procedure, shortened: (§2)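 Seeds in loam–sand blend received preemergence directed soil spray; separately, plants 2–10 cm at one- to two-leaf stage received postemergence spray, both with test chemicals in non-phytotoxic solvent with surfactant. After ~10 days in greenhouse, injury rated visually against untreated controls, 0 (no effect) to 100 (complete control).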

[3] = tested on: ryegrass, Italian; test: Test C pre-/postemergence herbicide test; format: in vivo, Lolium multiflorum
Procedure, shortened: as §1

[4] = tested on: ragweed; test: Test C pre-/postemergence herbicide test; format: in vivo, Ambrosia elatior
Procedure, shortened: as §1

[5] = tested on: giant foxtail; test: Test A pre-/postemergence herbicide test; format: in vivo, Setaria faberii
Procedure, shortened: as §2

[6] = tested on: waterhemp; test: Test C pre-/postemergence herbicide test; format: in vivo, Amaranthus rudis
Source text: Seeds of plant species selected from blackgrass (Alopecurus myosuroides), ryegrass, Italian (Italian ryegrass, Lolium multiflorum), wheat (winter wheat, Triticum aestivum), galium (catchweed bedstraw, Galium aparine), corn (Zea mays), crabgrass, large (large crabgrass, Digitaria sanguinalis), foxtail, giant (giant foxtail, Setaria faberii), johnsongrass (Sorghum halepense), lambsquarters (Chenopodium album), morningglory (Ipomoea coccinea), nutsedge, yellow (yellow nutsedge, Cyperus esculentus), pigweed (Amaranthus retroflexus), ragweed (common ragweed, Ambrosia elatior), soybean (Glycine max), barnyardgrass (Echinochloa crus-galli), oilseed rape (Brassica napus), waterhemp (common waterhemp, Amaranthus rudis), kochia (Kochia scoparia), oat, wild (wild oat, Avena fatua), surinam grass (Brachiaria decumbens), foxtail, green (green foxtail, Setaria viridis), goosegrass (Eleusine indica), bromegrass, downy (downy bromegrass, Bromus tectorum), nightshade (eastern black nightshade, Solanum ptycanthum), cocklebur (common cocklebur, Xanthium strumarium), cupgrass, woolly (woolly cupgrass, Eriochloa villosa), bermudagrass (Cynodon dactylon), sunflower, (common oilseed sunflower, Helianthus annuus), Russian thistle (Salsola kali) and velvetleaf (Abutilon theophrasti) were planted into a blend of loam soil and sand and treated preemergence with test chemicals formulated in a non-phytotoxic solvent mixture which included a surfactant. At the same time, plants selected from these crop and weed species and also barley (winter barley, Hordeum vulgare), […]), chickweed (common chickweed, Stellaria media), deadnettle (henbit deadnettle, Lamium amplexicaule), and canarygrass (littleseed canarygrass, Phalaris minor) were planted in pots containing Redi-Earth® planting medium (Scotts Company, 14111 Scottslawn Road, Marysville, Ohio 43041) comprising spaghnum peat moss, vermiculite, wetting agent and starter nutrients and treated with postemergence applications of test chemicals formulated in the same manner. Plants ranged in height from 2 to 18 cm (1- to 4-leaf stage) for postemergence treatments. Treated plants and controls were maintained in a greenhouse for 13 to 15 days, after which time all species were compared to controls and visually evaluated. Plant response ratings, summarized in Table C, are based on a scale of 0 to 100 where 0 is no effect and 100 is complete control. A dash (-) response means no test result.

[7] = tested on: galium; test: Test C pre-/postemergence herbicide test; format: in vivo, Galium aparine
Procedure, shortened: as §1

[8] = tested on: johnsongrass; test: Test C pre-/postemergence herbicide test; format: in vivo, Sorghum halepense
Procedure, shortened: as §1

[9] = tested on: pigweed; test: Test C pre-/postemergence herbicide test; format: in vivo, Amaranthus retroflexus
Procedure, shortened: as §1

[10] = tested on: pigweed; test: Test A pre-/postemergence herbicide test; format: in vivo, Amaranthus retroflexus
Procedure, shortened: as §2

[11] = Postemergence, 31 g ai/ha, scale 0 (no effect) to 100 (complete control)
[12] = Postemergence, 62 g ai/ha, scale 0 to 100 (0 no effect, 100 complete control)
[13] = Postemergence, 125 g ai/ha, scale 0 to 100 (0 no effect, 100 complete control)
[14] = Postemergence, 250 g ai/ha, scale 0 to 100 (0 no effect, 100 complete control)
[15] = Preemergence, 31 g ai/ha, scale 0 to 100, 0 is no effect and 100 is complete control
[16] = Preemergence, 62 g ai/ha, scale 0 to 100
[17] = Preemergence, 125 g ai/ha, scale 0 to 100 (0 no effect, 100 complete control)
[18] = Postemergence, 125 g ai/ha, 0 to 100 scale, 0 no effect, 100 complete control
[19] = Postemergence, 500 g ai/ha, 0 to 100 scale (0 no effect, 100 complete control)
[20] = Preemergence, 125 g ai/ha, visual rating on 0 to 100 scale (0 no effect, 100 complete control)
[21] = preemergence, 500 g ai/ha, 0 to 100 scale
[22] = Postemergence, 31 g ai/ha, scale 0 to 100 (0 no effect, 100 complete control)
[23] = Postemergence, 62 g ai/ha, scale 0 (no effect) to 100 (complete control)
[24] = Preemergence, 62 g ai/ha, scale 0 to 100 (0 no effect, 100 complete control)

O=C1NCC(c2ccc(F)c(F)c2)C1C(=O)Nc1cccc(F)c1F (racemic) [Compound 101]
35: Plant response rating, Waterhemp [6, 14]
80: Plant response rating, Foxtail, Giant [5, 18]
70: Plant response rating, Waterhemp [6, 16] | Plant response rating, Galium [7, 14] | Plant response rating, Pigweed [10, 19] | Plant response rating, Pigweed [10, 21]
50: Plant response rating, Corn [2, 19] | Plant response rating (scale of 0 to 100), Ryegrass, Italian ([3]; Preemergence, 250 g ai/ha) | Waterhemp plant response rating [6, 15] | Plant response rating, Waterhemp [6, 17] | Plant response rating, Galium [7, 11] | Plant response rating, Galium [7, 12]
20: Plant response rating, Waterhemp [6, 13] | Plant response rating, Pigweed [10, 18]
55: Plant response rating, Johnsongrass [8, 17] | Plant response rating, Pigweed [9, 17]
5: Plant response rating, Nutsedge, Yellow [1, 14] | Plant response rating, Ragweed [4, 13] | Plant response rating, Ragweed [4, 17] | Plant response rating (scale of 0 to 100), Ragweed ([4]; Preemergence, 250 g ai/ha) | Plant response rating, Waterhemp [6, 12]
45: Plant response rating, Ragweed [4, 14] | Plant response rating, Pigweed [9, 14]
90: Plant response rating, Foxtail, Giant [5, 19] | Foxtail, Giant plant response rating [5, 20] | Plant response rating, Foxtail, Giant [5, 21] | Plant response rating, Galium [7, 17]
30: Ryegrass, Italian plant response rating [3, 15] | Plant response rating, Ryegrass, Italian [3, 17] | Plant response rating, Galium [7, 13]
10: Plant response rating, Pigweed [9, 12] | Pigweed plant response rating [10, 20]
15: Plant response rating, Ryegrass, Italian [3, 16] | Ragweed plant response rating [4, 15] | Plant response rating, Johnsongrass [8, 16] | Plant response rating, Pigweed [9, 13]
85: Plant response rating (scale of 0 to 100), Waterhemp ([6]; Preemergence, 250 g ai/ha) | Plant response rating (scale of 0 to 100), Galium ([7]; Preemergence, 250 g ai/ha) | Plant response rating (scale of 0 to 100), Pigweed ([9]; Preemergence, 250 g ai/ha)
0: Plant response rating, Nutsedge, Yellow [1, 11] | Plant response rating, Nutsedge, Yellow [1, 12] | Plant response rating, Nutsedge, Yellow [1, 13] | Nutsedge, Yellow plant response rating [1, 15] | Plant response rating, Nutsedge, Yellow [1, 16] | Plant response rating, Nutsedge, Yellow [1, 17] | Plant response rating (scale of 0 to 100), Nutsedge, Yellow ([1]; Preemergence, 250 g ai/ha) | Plant response rating, Corn [2, 18] | Corn plant response rating [2, 20] | Plant response rating, Corn [2, 21] | Plant response rating, Ryegrass, Italian [3, 11] | Plant response rating, Ryegrass, Italian [3, 12] | Plant response rating, Ryegrass, Italian [3, 13] | Plant response rating, Ryegrass, Italian [3, 14] | Plant response rating, Ragweed [4, 11] | Plant response rating, Ragweed [4, 12] | Plant response rating, Ragweed [4, 16] | Plant response rating, Waterhemp [6, 11] | Galium plant response rating [7, 15] | Plant response rating, Johnsongrass [8, 11] | Plant response rating, Johnsongrass [8, 12] | Plant response rating, Johnsongrass [8, 13] | Plant response rating, Johnsongrass [8, 14] | Johnsongrass plant response rating [8, 15] | Plant response rating, Pigweed [9, 11] | Pigweed plant response rating [9, 15] | Plant response rating, Pigweed [9, 16]
75: Plant response rating (scale of 0 to 100), Johnsongrass ([8]; Preemergence, 250 g ai/ha)
40: Plant response rating, Galium [7, 16]

O=C1NC[C@H](c2cccc(C(F)(F)F)c2)[C@H]1C(=O)Nc1ccccc1F [Compound 204, (3R,4S)—N-(2-fluorophenyl)-2-oxo-4-[3-(trifluoromethyl)phenyl]-3-pyrrolidinecarboxamide]
5: Plant response rating, Waterhemp [6, 14]
60: Plant response rating, Galium [7, 13] | Plant response rating, Galium [7, 14]
65: Plant response rating (scale of 0 to 100), Ragweed ([4]; Preemergence, 250 g ai/ha)
10: Plant response rating, Galium [7, 22] | Johnsongrass plant response rating [8, 15] | Plant response rating, Pigweed [9, 23] | Plant response rating, Pigweed [9, 13] | Plant response rating, Pigweed [9, 14]
50%: pest or weed control at 500 g/ha ([10]; Amaranthus retroflexus, pre-emergence, 240 h, preemergence, 500 g ai/ha, 0 to 100 scale, 0 is no effect and 100 is complete control, read-out: Plant response rating, Pigweed)
15: Plant response rating, Ryegrass, Italian [3, 14]
60%: Corn plant response rating (crop injury, 0 = no effect, 100 = complete kill) at 125 g/ha ([2]; Zea mays, post-emergence, 240 h, Postemergence, 125 g ai/ha, 0 to 100 scale, 0 is no effect, 100 is complete control)
0: Plant response rating, Nutsedge, Yellow [1, 22] | Plant response rating, Nutsedge, Yellow [1, 23] | Plant response rating, Nutsedge, Yellow [1, 13] | Plant response rating, Nutsedge, Yellow [1, 14] | Nutsedge, Yellow plant response rating [1, 15] | Nutsedge, Yellow plant response rating [1, 24] | Plant response rating, Nutsedge, Yellow [1, 17] | Plant response rating (scale of 0 to 100), Nutsedge, Yellow ([1]; Preemergence, 250 g ai/ha) | Plant response rating, Ryegrass, Italian [3, 22] | Plant response rating, Ryegrass, Italian [3, 23] | Plant response rating, Ryegrass, Italian [3, 13] | Ryegrass, Italian plant response rating [3, 15] | Ryegrass, Italian plant response rating [3, 24] | Plant response rating, Ragweed [4, 22] | Plant response rating, Ragweed [4, 23] | Plant response rating, Ragweed [4, 13] | Plant response rating, Ragweed [4, 14] | Plant response rating, Waterhemp [6, 22] | Plant response rating, Waterhemp [6, 23] | Plant response rating, Waterhemp [6, 13] | Plant response rating, Johnsongrass [8, 22] | Plant response rating, Johnsongrass [8, 23] | Plant response rating, Johnsongrass [8, 13] | Plant response rating, Johnsongrass [8, 14] | Pigweed plant response rating [9, 15] | Pigweed plant response rating [9, 24] | Plant response rating, Pigweed [9, 17]
90%: pest or weed control at 125 g/ha ([5]; Setaria faberi, post-emergence, 240 h, Postemergence, 125 g ai/ha, 0 to 100 scale, 0 is no effect, 100 is complete control, read-out: Plant response rating, Foxtail, Giant) | pest or weed control at 125 g/ha ([5]; Setaria faberi, pre-emergence, 240 h, 125 g ai/ha, visual rating, 0 to 100 scale, 0 no effect, 100 complete control, approximately 10 days, read-out: Plant response rating, Foxtail, Giant) | pest or weed control at 500 g/ha ([5]; Setaria faberi, pre-emergence, 240 h, preemergence, 500 g ai/ha, 0 to 100 scale, 0 is no effect and 100 is complete control, read-out: Plant response rating, Foxtail, Giant)
85: Plant response rating (scale of 0 to 100), Johnsongrass ([8]; Preemergence, 250 g ai/ha)
90: Foxtail, Giant plant response rating (0 to 100 scale, 0 is no effect, 100 is complete control) ([5]; Postemergence, 500 g ai/ha) | Plant response rating (scale of 0 to 100), Waterhemp ([6]; Preemergence, 250 g ai/ha) | Galium plant response rating [7, 24] | Plant response rating, Galium [7, 17] | Plant response rating (scale of 0 to 100), Galium ([7]; Preemergence, 250 g ai/ha)
80: Corn plant response rating (0 to 100 scale, 0 is no effect, 100 is complete control) ([2]; Postemergence, 500 g ai/ha) | Plant response rating, Waterhemp [6, 17]
100: Plant response rating, Ragweed [4, 17] | Waterhemp plant response rating [6, 15]
30: Plant response rating (scale of 0 to 100), Ryegrass, Italian ([3]; Preemergence, 250 g ai/ha) | Ragweed plant response rating [4, 15] | Ragweed plant response rating [4, 24]
75: Waterhemp plant response rating [6, 24] | Plant response rating, Johnsongrass [8, 17] | Plant response rating (scale of 0 to 100), Pigweed ([9]; Preemergence, 250 g ai/ha)
45: Plant response rating, Galium [7, 23]
20: Plant response rating, Pigweed [9, 22] | Pigweed plant response rating (0 to 100 scale, 0 is no effect, 100 is complete control) ([10]; Postemergence, 500 g ai/ha)
0%: pest or weed control at 125 g/ha ([10]; Amaranthus retroflexus, post-emergence, 240 h, Postemergence, 125 g ai/ha, 0 to 100 scale, 0 is no effect, 100 is complete control, read-out: Plant response rating, Pigweed) | pest or weed control at 125 g/ha ([10]; Amaranthus retroflexus, pre-emergence, 240 h, 125 g ai/ha, visual rating, 0 to 100 scale, 0 no effect, 100 complete control, approximately 10 days, read-out: Plant response rating, Pigweed)
50: Plant response rating, Ryegrass, Italian [3, 17]
40: Johnsongrass plant response rating [8, 24]
